Measured values from US8513232B2, “Substituted spirocyclic piperidine derivatives as histamine-3 (H3) receptor ligands” (Cephalon, Inc., priority 2008, dated 2013).

What was measured:
[1] = molecular target: T1, human H3 receptor (Homo sapiens, UniProt Q9Y5N1); assay: Human H3 radioligand binding ([3H]-N-alpha-methylhistamine, SPA); details: Table A; human H3 binding; read-out: Human Ki
T1 construct: expressed in transfected cells
Experimental: (§1) Methods: CHO cells stably expressing the human H3 receptor (GenBank: NM_007232) were harvested and cell pellets were frozen (−80° C.). Cell pellets were resuspended in 5 mM Tris-HCl, pH 7.5 with […] and a cocktail of protease inhibitors (Complete Protease Inhibitior Tablets, Roche Diagnostics). Cells were disrupted using a polytron cell homogenizer and the suspension was centrifuged at 1000×g for 10 minutes at 4° C. The pellet was discarded and the supernatant centrifuged at 40,000×g for 30 min at 4° C. This membrane pellet was washed in membrane buffer containing 50 mM Tris-HCl, pH 7.5 with 0.6 mM EDTA, 5 mM MgCl2 and protease inhibitors, recentrifuged as above and the final pellet resuspended in membrane buffer plus 250 mM sucrose and frozen at −80° C.
(§2) Radioligand Binding. Membranes were resuspended in 50 mM Tris HCl (pH 7.4), 5 mM MgCl2, 0.1% BSA. The membrane suspensions (10 μg protein per well) were incubated in a 96 well microtiter plate with [^3H]-N-alpha-methylhistamine (approximately 1 nM final concentration), test compounds at various concentrations (0.01 nM-30 μM) and scintillation proximity beads (Perkin Elmer, FlashBlueGPCR Scintillating Beads) in a final volume of 80 μl for 4 hours at room temperature, protected from light. Non-specific binding was determined in the presence of 10 μM clobenpropit. Radioligand bound to receptor, and therefore in proximity to the scintillation beads, was measured using a MicroBeta scintillation counter.

[2] = molecular target: T2, rat histamine H3 receptor (Rattus norvegicus, UniProt Q9QYN8); assay: Rat H3 radioligand binding ([3H]-N-alpha-methylhistamine, SPA); details: Table A; rat H3 binding; read-out: Rat Ki
T2 construct: encoding the entire 445-amino-acid rat histamine H3 receptor; expressed in transfected cells; membrane preparation
T2 sequence (Q9QYN8 whole entry): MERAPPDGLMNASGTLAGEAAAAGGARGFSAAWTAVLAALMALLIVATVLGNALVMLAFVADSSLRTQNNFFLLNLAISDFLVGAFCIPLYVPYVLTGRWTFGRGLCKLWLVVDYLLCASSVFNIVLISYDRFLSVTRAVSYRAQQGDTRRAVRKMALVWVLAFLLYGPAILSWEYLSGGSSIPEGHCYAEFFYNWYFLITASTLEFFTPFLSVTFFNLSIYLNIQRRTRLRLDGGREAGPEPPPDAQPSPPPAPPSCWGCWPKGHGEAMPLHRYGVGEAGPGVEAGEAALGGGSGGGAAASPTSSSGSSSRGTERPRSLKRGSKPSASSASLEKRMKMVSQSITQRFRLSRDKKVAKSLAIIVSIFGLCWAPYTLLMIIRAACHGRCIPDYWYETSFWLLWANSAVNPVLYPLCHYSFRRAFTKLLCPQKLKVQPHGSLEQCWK
Source text: as §1, with “Cell line development and membrane preparation. The rat” for “Methods: CHO cells stably expressing the human”, “cDNA was PCR amplified from reverse-transcribed RNA pooled from rat thalamus, hypothalamus, striatum and prefrontal cortex with a sequence corresponding to by #338-1672 of Genbank file #NM_053506, encoding the entire 445-amino-acid rat histamine H3 receptor. This was engineered into the pIRES-neo3 mammalian expression vector, which was stably transfected into the CHO-A3 cell line (Euroscreen, Belgium), followed by clonal selection by limiting dilution. Cells” for “(GenBank: NM_007232)”
as §2

T1 sequence (Q9Y5N1 whole entry): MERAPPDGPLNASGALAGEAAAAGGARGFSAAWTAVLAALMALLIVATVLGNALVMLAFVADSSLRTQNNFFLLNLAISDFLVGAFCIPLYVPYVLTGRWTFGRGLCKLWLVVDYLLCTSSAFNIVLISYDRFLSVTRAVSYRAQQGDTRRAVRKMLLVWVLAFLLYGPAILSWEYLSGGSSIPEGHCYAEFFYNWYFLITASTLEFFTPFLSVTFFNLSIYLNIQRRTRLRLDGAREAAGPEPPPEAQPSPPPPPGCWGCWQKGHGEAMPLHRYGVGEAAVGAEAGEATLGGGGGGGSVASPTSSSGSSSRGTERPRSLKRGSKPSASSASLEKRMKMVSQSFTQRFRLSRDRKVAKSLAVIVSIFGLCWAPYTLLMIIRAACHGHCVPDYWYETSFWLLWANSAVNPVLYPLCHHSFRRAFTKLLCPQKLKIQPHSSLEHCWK

Row | SMILES | Ki [1] [nM] | Ki [2] [nM]
1 | Fc1ccc(-c2ccc3c(c2)COC2(CCN(C4CCC4)CC2)O3)cn1 [Example 1] | < 200 | < 200
2 | c1cc2c(cc1-c1ccc3c(c1)COC1(CCN(C4CCC4)CC1)O3)CCO2 [Example 2] | < 200 | < 200
3 | N#Cc1ccc(-c2ccc3c(c2)COC2(CCN(C4CCC4)CC2)O3)cc1 [Example 3] | < 200 | < 200
4 | c1ccc2oc(-c3ccc4c(c3)COC3(CCN(C5CCC5)CC3)O4)cc2c1 [Example 6] | 200 to 1000 | –
5 | c1cncc(-c2ccc3c(c2)COC2(CCN(C4CCC4)CC2)O3)c1 [Example 7] | < 200 | < 200
6 | O=C(c1ccc(-c2ccc3c(c2)COC2(CCN(C4CCC4)CC2)O3)cc1)N1CCCC1 [Example 8] | < 200 | < 200
7 | O=C(c1ccc(-c2ccc3c(c2)COC2(CCN(C4CCC4)CC2)O3)cc1)N1CCOCC1 [Example 9] | < 200 | < 200
8 | c1cc(-c2ccc3c(c2)COC2(CCN(C4CCC4)CC2)O3)ccn1 [Example 10] | < 200 | < 200
9 | CCOc1ccc(-c2ccc3c(c2)COC2(CCN(C4CCC4)CC2)O3)cn1 [Example 11] | < 200 | < 200
10 | c1csc(-c2ccc3c(c2)COC2(CCN(C4CCC4)CC2)O3)c1 [Example 12] | < 200 | < 200
11 | c1cc(-c2ccc3c(c2)COC2(CCN(C4CCC4)CC2)O3)cs1 [Example 13] | < 200 | < 200
12 | O=C(NC1CC1)c1ccc(-c2ccc3c(c2)COC2(CCN(C4CCC4)CC2)O3)cc1 [Example 14] | < 200 | < 200
13 | O=S(=O)(c1ccc(-c2ccc3c(c2)COC2(CCN(C4CCC4)CC2)O3)cc1)N1CCCC1 [Example 16] | < 200 | < 200
14 | O=S(=O)(c1ccc(-c2ccc3c(c2)COC2(CCN(C4CCC4)CC2)O3)cc1)N1CCOCC1 [Example 17] | < 200 | < 200
15 | NC(=O)c1ccc(-c2ccc3c(c2)COC2(CCN(C4CCC4)CC2)O3)cc1 [Example 18] | < 200 | < 200
16 | CCS(=O)(=O)c1ccc(-c2ccc3c(c2)COC2(CCN(C4CCC4)CC2)O3)cc1 [Example 20] | < 200 | < 200
17 | CS(=O)(=O)c1ccc(-c2ccc3c(c2)COC2(CCN(C4CCC4)CC2)O3)cc1 [Example 21] | < 200 | < 200
18 | COc1ncc(-c2ccc3c(c2)COC2(CCN(C4CCC4)CC2)O3)cn1 [Example 23] | < 200 | < 200
19 | O=S(=O)(c1ccc(-c2ccc3c(c2)COC2(CCN(C4CCC4)CC2)O3)cc1)N1CCC1 [Example 24] | < 200 | < 200
20 | O=S(=O)(NC1CC1)c1ccc(-c2ccc3c(c2)COC2(CCN(C4CCC4)CC2)O3)cc1 [Example 25] | < 200 | < 200

Row | SMILES | Ki [1] [nM] | Ki [2] [nM]
21 | CN(C)S(=O)(=O)c1ccc(-c2ccc3c(c2)COC2(CCN(C4CCC4)CC2)O3)cc1 [Example 32] | < 200 | < 200
22 | NC(=O)Cc1ccc(-c2ccc3c(c2)COC2(CCN(C4CCC4)CC2)O3)cc1 [Example 49] | < 200 | < 200
23 | Nc1cccc(-c2ccc3c(c2)COC2(CCN(C4CCC4)CC2)O3)c1 [Example 51] | < 200 | < 200
24 | NC(=O)Nc1cccc(-c2ccc3c(c2)COC2(CCN(C4CCC4)CC2)O3)c1 [Example 52] | < 200 | < 200
25 | O=C(c1cccc(-c2ccc3c(c2)COC2(CCN(C4CCC4)CC2)O3)c1)N1CCCCC1 [Example 53] | < 200 | < 200
26 | O=C(NC1CC1)c1cccc(-c2ccc3c(c2)COC2(CCN(C4CCC4)CC2)O3)c1 [Example 55] | < 200 | < 200
27 | O=C(c1cccc(-c2ccc3c(c2)COC2(CCN(C4CCC4)CC2)O3)c1)N1CCOCC1 [Example 56] | < 200 | < 200
28 | Nc1cccc(-c2ccc3c(c2)COC2(CCN(C4CCCC4)CC2)O3)c1 [Example 61] | < 200 | –
29 | O=C(Nc1cccc(-c2ccc3c(c2)COC2(CCN(C4CCCC4)CC2)O3)c1)c1ccccc1 [Example 62] | < 200 | –
30 | CC(C)N1CCC2(CC1)OCc1cc(-c3cccc(N)c3)ccc1O2 [Example 63] | < 200 | –
31 | CC(C)N1CCC2(CC1)OCc1cc(-c3ccc4c(c3)CCO4)ccc1O2 [Example 64] | < 200 | –
32 | O=S(=O)(c1ccc(-c2ccc3c(c2)COC2(CCN(C4CCC4)CC2)O3)c(F)c1)N1CCOCC1 [Example 65] | < 200 | < 200
33 | Cc1nc(C)c(-c2ccc3c(c2)COC2(CCN(C4CCC4)CC2)O3)s1 [Example 70] | < 200 | < 200
34 | N#Cc1ccccc1-c1ccc2c(c1)COC1(CCN(C3CCC3)CC1)O2 [Example 73] | < 200 | < 200
35 | N#Cc1ncc(-c2ccc3c(c2)COC2(CCN(C4CCC4)CC2)O3)s1 [Example 75] | < 200 | < 200
36 | N#Cc1ccc(-c2ccc3c(c2)OC2(CCN(C4CCC4)CC2)O3)cc1 [Example 88] | 200 to 1000 | < 200
37 | O=C(c1ccc(-c2ccc3c(c2)OC2(CCN(C4CCC4)CC2)O3)cc1)N1CCOCC1 [Example 89] | < 200 | < 200
38 | O=C(c1cccc(-c2ccc3c(c2)OC2(CCN(C4CCC4)CC2)O3)c1)N1CCOCC1 [Example 91] | < 200 | < 200
39 | N#Cc1cccc(-c2ccc3c(c2)OC2(CCN(C4CCC4)CC2)O3)c1 [Example 92] | 200 to 1000 | > 1000
40 | O=C(c1cccc(-c2ccc3c(c2)OC2(CCN(C4CCC4)CC2)OC3)c1)N1CCCC1 [Example 94] | 200 to 1000 | 200 to 1000

Row | SMILES | Ki [1] [nM] | Ki [2] [nM]
41 | O=C(c1ccc(-c2ccc3c(c2)CCC2(CCN(C4CCC4)CC2)O3)cc1)N1CCOCC1 [Example 99] | < 200 | < 200
42 | CCOc1ccc(-c2ccc3c(c2)CCC2(CCN(C4CCC4)CC2)O3)cn1 [Example 100] | < 200 | < 200
43 | CS(=O)(=O)c1ccc(-c2ccc3c(c2)CCC2(CCN(C4CCC4)CC2)O3)cc1 [Example 101] | < 200 | < 200
44 | c1ccc(-c2ccc3c(c2)CCC2(CCN(C4CCC4)CC2)O3)cc1 [Example 102] | < 200 | < 200
45 | O=S(=O)(c1ccc(-c2ccc3c(c2)CCC2(CCN(C4CCC4)CC2)O3)cc1)N1CCCC1 [Example 103] | < 200 | < 200
46 | COc1ncc(-c2ccc3c(c2)CCC2(CCN(C4CCC4)CC2)O3)cn1 [Example 104] | < 200 | < 200
47 | FC(F)(F)Oc1ccc(-c2ccc3c(c2)CCC2(CCN(C4CCC4)CC2)O3)cc1 [Example 105] | < 200 | 200 to 1000
48 | CNC(=O)c1ccc(-c2ccc3c(c2)CCC2(CCN(C4CCC4)CC2)O3)cc1 [Example 106] | < 200 | < 200
49 | c1ncc(-c2ccc3c(c2)CCC2(CCN(C4CCC4)CC2)O3)cn1 [Example 107] | < 200 | < 200
50 | CN(C)c1ncc(-c2ccc3c(c2)CCC2(CCN(C4CCC4)CC2)O3)cn1 [Example 108] | < 200 | < 200
51 | O=C(NC1CC1)c1ccc(-c2ccc3c(c2)CCC2(CCN(C4CCC4)CC2)O3)cc1 [Example 109] | < 200 | < 200
52 | N#Cc1ccc(-c2ccc3c(c2)CCC2(CCN(C4CCC4)CC2)O3)cc1 [Example 110] | < 200 | < 200
53 | Cn1cc(-c2ccc3c(c2)CCC2(CCN(C4CCC4)CC2)O3)cn1 [Example 111] | < 200 | < 200
54 | c1cc2c(cc1-c1ccc3nonc3c1)CCC1(CCN(C3CCC3)CC1)O2 [Example 112] | < 200 | < 200
55 | NC(=O)c1ccc(-c2ccc3c(c2)CCC2(CCN(C4CCC4)CC2)O3)cc1 [Example 113] | < 200 | < 200
56 | c1cc2c(cc1-c1cn[nH]c1)CCC1(CCN(C3CCC3)CC1)O2 [Example 114] | < 200 | < 200
57 | CNC(=O)c1ccc(-c2ccc3c(c2)CCC2(CCN(C4CCC4)CC2)O3)cc1F [Example 115] | < 200 | < 200
58 | NS(=O)(=O)c1ccc(-c2ccc3c(c2)CCC2(CCN(C4CCC4)CC2)O3)cc1 [Example 116] | < 200 | < 200
